“Also recorded” adds a separate entry of the source. Read-outs that look alike come from different tables or passages of the source.

In test [1] the target is T1, FPRL1 (Homo sapiens, UniProt P25090).
T1 construct: expressed in transfected cells; host or cells: human embryonic kidney (HEK) 293 cells, designated FPRL1/293
T1 sequence (P25090 1-351): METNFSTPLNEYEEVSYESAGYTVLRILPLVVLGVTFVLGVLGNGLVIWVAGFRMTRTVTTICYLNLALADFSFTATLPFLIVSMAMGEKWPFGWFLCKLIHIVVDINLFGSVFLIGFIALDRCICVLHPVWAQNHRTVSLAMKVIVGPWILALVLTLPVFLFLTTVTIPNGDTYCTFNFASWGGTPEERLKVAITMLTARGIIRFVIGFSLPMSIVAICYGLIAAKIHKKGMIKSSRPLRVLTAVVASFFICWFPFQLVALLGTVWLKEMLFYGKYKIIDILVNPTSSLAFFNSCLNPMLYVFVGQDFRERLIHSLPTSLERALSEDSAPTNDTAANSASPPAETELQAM
The class given is cell-based. The protocol:
(Prossnitz and Ye, Pharmacol. Ther. 74: 73 (1997); Murphy, The N-formyl peptide chemotactic receptors, Chemoattractant ligands and their receptors. CRC Press, Boca Raton, p. 269 (1996); and Gao and M. Murphy, J. Biol. Chem. 268: 25395 (1993)).
(§1) Calcium mobilization was assayed by incubating 107/ml of monocytes, neutrophils, FPRL1 or ETFR transfectants in loading buffer containing 138 mM NaCl, 6 mM KCl, 1 mM CaCl2, 10 mM HEPES (pH 7.4), 5 mM glucose, 0.1% BSA with 5 μM Fura-2 (Sigma) at 37° C. for 30 min. The dye-loaded cells were washed and resuspended in fresh loading buffer. The cells were then transferred into quartz cuvettes ([…] in 2 ml) which were placed in a luminescence spectrometer LS50 B (Perkin-Elmer Limited, Beaconsfield, England). Stimulants at different concentrations were added in a volume of 20 μl to the cuvettes at indicated time points. The ratio of fluorescence at 340 and 380 nm wavelength was calculated using the FL WinLab program (Perkin Elmer).

Test [2] has as its system neutrophils. Kind of test: Calcium mobilization (Fura-2) in human neutrophils. Type of test: cell-based.
For test [3], the system named is human peripheral blood monocytes. Type of test: cell-based.
The test system of test [4] is mock-transfected cells. Briefly: Chemotaxis of mock-transfected cells. The class given is cell-based, rat. To be noted: FIG. 3E.
For test [5], the system named is human monocytes. Briefly: Calcium mobilization (Fura-2) in human monocytes. Type of test: cell-based. On the technique in general: Calcium flux is commonly read through the fluorescence of an indicator in the cells.
Test [6] has as its system mock-transfected parental cells. Briefly: Calcium mobilization in parental or mock-transfected rat basophil cell line. To be noted: rat basophil cell line without FPR. Type of test: cell-based. The procedure:
as §1, with “neutrophils” for “neutrophils, FPRL1”, “cells” for “transfectants”, “transfered” for “transferred”

Test [7] concerns human neutrophils. The class given is cell-based.
Test [8] deals with T1, FPRL1. Briefly: Chemotaxis of FPRL1/293 cells. Type of test: cell-based. The settings on record: for migration / chemotaxis of FPRL1/293 cells: wide range of concentrations. The protocol: The chemotactic response of cells transfected with a nucleic acid encoding FPR or FPRL1 was tested as another sensitive parameter to assess the receptor targets of T21/DP107. (Gong et al., J. Biol. Chem. 273: 4289 (1998); Gong et al., J. Biol. Chem. 272:11682 (1997); and Ben-Baruch et al., J. Biol. Chem. 270: 22123 (1995)). Accordingly, different concentrations of T21/DP107 were placed in the lower wells of a chemotaxis chamber and a cell suspension was placed in the upper wells. The upper and lower wells were separated by polycarbonate filters precoated with mouse collagen type I. After incubation, the cells that migrated across the filters were stained and counted. […] The CI (chemotaxis index), which represents the fold increase of leukocyte migration in response to T21/DP107 over control medium, was also determined. […] (FIG. 9B).
Leukocytes, ETFR and FPRL1/293 cell migration was assessed using a 48-well microchemotaxis chamber technique as previously described. (Gong et al., J. Biol. Chem. 273: 4289 (1998); Gong et al., J. Biol. Chem. 272: 11682 (1997); and Kliger et al., J. Biol. Chem. 272: 13496 (1997)). Different concentrations of stimulants were placed in wells of the lower compartment of the chamber (Neuro Probe, Cabin John, Mass.), the cell suspension was seeded in wells of the upper compartment which was separated from the lower compartment by a polycarbonate filter (Osmonics, Livermore, Calif.; 5 μm-pore size for leukocytes, 10 μm pore-size for ETFR and FPRL1/293 cells). For CD3+ T lymphocytes, the filters were precoated with 20 μg/ml bovine fibronectin (Sigma). The filters for ETFR and FPRL1/293 cell migration were precoated with 50 μg/ml collagen type I (Collaborative Biomedical products, Bedford, Mass.) to favor the attachment of the cells. After incubation at 37° C. (90 min for monocytes, 60 min for neutrophils, 180 min for T cells and 300 min for ETFR or FPRL1/293 cells), the filters were removed, stained and the cells migrating across the filter were counted by light microscopy after coding the samples. […] The significance of the increase in cell migration was determined using Student's t test and CI≧2 was statistically significant compared to medium control (at least p<0.05).

Test [9] concerns HEK 293 cells. Briefly: Calcium mobilization in parental or mock transfected HEK 293 cells. Type of test: cell-based, human. To be noted: control experiments. The protocol: (FIGS. 8C1, 8C2, 8F1, and 8F2).
as §1

Test [10] deals with HIV-1. To be noted: T lymphocyte tropic and monocyte tropic HIV-1; Lawless et al. 1996; cited from earlier work.
[11] abbreviates: monocytes, pertussis toxin at 100 ng/ml for 30 min at 37° C. (FIG. 1B).
[12] abbreviates: monocytes, pertussis toxin at 100 ng/ml for 30 min at 37° C. (FIG. 6B).

In the case of `CSCC[C@H](NC=O)C(=O)N[C@@H](CC(C)C)C(=O)N[C@@H](Cc1ccccc1)C(=O)O` [fMLP, N-formyl-methionyl-leucyl-phenylalanine], in [1], the “desensitization of T21/DP107-induced Ca++ mobilization” value was “desensitizes”. In addition, in test [1], the “minimal effective concentration to induce Ca++ mobilization” value is “low μM range”. Besides, the “desensitizing effect on T20/DP178-induced Ca++ mobilization” value in test [2] (neutrophils, fMLP 100 nM, T20/DP178 100 nM) is “desensitizes; also recorded: marked desensitizing effect”; in [5] (monocytes, fMLP 100 nM, T20/DP178 100 nM), “desensitizes; also recorded: marked desensitizing effect”. In addition, the “desensitizing effect on T21/DP107-induced Ca++ mobilization” value in [2] (neutrophils, high concentrations (≧1 μM) of fMLP, T21/DP107 1 μM) was “desensitizes; also recorded: partial desensitizing effect”; in test [5] (monocytes, high concentrations (≧1 μM) of fMLP, T21/DP107 1 μM) it was “desensitizes; also recorded: partial desensitizing effect”. Also, the “migration across the filters (microscopy at 200× magnification)” value in test [3] (monocytes, 100 nM) is “significant migration”; in test [7], “significant migration”. Further, the “migration of mock-transfected cells” value in test [4] was “did not induce migration”. Further, in test [6], the “Ca++ flux in parental or mock-transfected cells” value is given as “Neither peptide stimulated; also recorded: did not induce any”. For the same compound, the “migration / chemotaxis of FPRL1 expressing cells” value in [8] (at concentrations as high as 50 μM (5×10−5 M)) is given as “does not induce significant chemotaxis; also recorded: failed to induce significant migration”. Besides, the “migration / chemotaxis of FPRL1/293 cells” value in test [8] is “failed to migrate”. For the same compound, the “Ca++ mobilization in parental or mock transfected HEK 293 cells” value in test [9] is recorded as “did not induce any”.

For `CCCCC[C@H](O)/C=C/C=C\C=C\C=C\[C@@H](O)[C@@H](O)CCCC(=O)O` [LXA4, lipoxin A4], the “induction of Ca++ mobilization in FPRL1 expressing cells” value in test [1] (FPRL1/293 cells) is listed as “did not detect significant induction”; in test [1] (FPRL1/293 cells, listed as lipoxin A4), “not able to induce”. Moreover, the “inhibition of T21/DP107 signaling” value is recorded as “nor did we observe inhibition” in [1] (FPRL1/293 cells, commercially available LXA4 (Biomol)); “nor did we observe inhibition” in test [2] (phagocytes (neutrophils), commercially available LXA4 (Biomol)); “nor did we observe inhibition” in [5] (phagocytes (monocytes), commercially available LXA4 (Biomol)). Moreover, the “migration / chemotaxis of FPRL1/293 cells” value in [8] is reported as “did not detect significant induction”; in [8] (listed as lipoxin A4), “not able to induce”.

QNQQEKNEQELLELDKWASLWNWF [T914]: the anti-HIV-1 fusion activity result in [10] is “ineffective”.

For pertussis toxin, the “inhibition of T20/DP178-induced migration by pretreatment of the cells” value in test [3] (setting [11]) and in test [7] (neutrophils) was “completely inhibited” throughout. Further, the “inhibition of T21/DP107-induced migration by pretreatment of the cells” value in test [3] (setting [12]) is on record as “inhibition; also recorded: completely inhibited”; in test [7] (neutrophils), “completely inhibited”.

On to cholera toxin, for which the “inhibition of T20/DP178-induced migration by pretreatment of the cells” value in test [3] and in test [7] was “not” throughout. Besides, the “inhibition of T21/DP107-induced migration by pretreatment of the cells” value in test [3] and in test [7] was “not” throughout.

Regarding `CO[C@H]1[C@@H](OC)C[C@H](C)[C@@H](OC)C2=CC(=O)C=C(NC(=O)/C(C)=C/C=C\[C@H](OC)[C@@H](OC(N)=O)/C(C)=C/[C@@H]1C)C2=O` [herbimycin A], the “inhibition of T20/DP178-induced migration by pretreatment of the cells” value in test [3] (setting [11]) and in test [7] (neutrophils) was “not” each time. For the same compound, the “inhibition of T21/DP107-induced migration by pretreatment of the cells” value in test [3] (setting [12]) and in [7] (neutrophils) was “not” in each case.

These data come from patent US6830893B2 (priority 1999, dated 2004).
